Experimental data published in patent publication US6444692B1, “Fungicidal mixtures” (BASF Aktiengesellschaft, priority 1997, dated 2002).

Test system: powdery mildew of wheat (Erysiphe graminis forma specialis tritici)
Experiment: Activity against powdery mildew of wheat (protective spray on wheat seedlings, visual % infection of leaf area after 7 days)
Assay type: in vivo
Details: single active ingredient, wheat seedlings cv. Frühgold
From the text: The active ingredients, separately or together, are formulated as a 10% emulsion in a mixture of 70% by weight of cyclohexanone, 20% by weight of Nekanil® LN (Lutensol® AP6, wetting agent having emulsifying and dispersing action, based on ethoxylated alkylphenols) and 10% by weight of Emulphor® EL (Emulan® EL, emulsifier based on ethoxylated fatty alcohols) and diluted with water to give the desired concentration.
Leaves of wheat seedlings cv. “Frühgold” which had been grown in pots were sprayed to runoff point with an aqueous preparation of active ingredient which had been prepared from a stock solution comprising 10% of active ingredient, 63% of cyclohexanone and 27% of emulsifier and, 24 hours after the spray coating had dried on, dusted with spores of powdery mildew of wheat (Erysiphe graminis forma specialis tritici). The test plants were subsequently placed in a greenhouse at from […] and a relative atmospheric humidity of 60 to 90%. After 7 days, the extent of mildew development was determined visually as % infection of the total leaf area.
Evaluation is carried out by determining the infected leaf areas in percent. These percentages are converted into efficacies. The expected efficacies of the mixtures of the active ingredients are determined using Colby's formula [R. S. Colby, Weeds 15, 20-22 (1967)] and compared with the observed efficacies. […]
The efficacy (E) is calculated as follows using Abbot's formula: […]
α corresponds to the fungal infection of the treated plants in % and
β corresponds to the fungal infection of the untreated (control) plants in %
An efficacy of 0 means that the infection level of the treated plants corresponds to that of the untreated control plants; an efficacy of 100 means that the treated plants were not infected.

Compound | Efficacy in % of the untreated control (0.125 ppm in the spray liquor) [%] | Efficacy in % of the untreated control (0.5 ppm in the spray liquor) [%]
COC(=O)N(OC)c1ccccc1COc1ccn(-c2ccc(Cl)cc2)n1 [Compound I.32] | 0 | 10
CNC(=O)/C(=N\OC)c1ccccc1COc1cc(C)ccc1C [Compound III] | 20 | 
CO/N=C(\C(=O)OC)c1ccccc1COc1ccccc1C [Compound II] | 0 | 
